Source: patent US7015248B2, “Use of abietic acid and derivatives thereof for inhibiting cancer” (Xiamen Ever-Health Bio-Tech. Co. Ltd, priority 2002, dated 2006)
Where two headings read alike, the source gives them in different places.

Tests used:
prostaglandin E2 = conditions: lipopolysaccharide-treated macrophages; Fernandez et al., 2001; cited from earlier work
[1] = system: Hep-G2 human hepatocellular carcinoma cell line; assay: combination with mitomycin C on Hep-G2 cells; format: cell-based; conditions: in combination with mitomycin C
[2] = system: MCF-7 breast cancer cell line; assay: combination with taxol against MCF-7 cells; format: cell-based; conditions: in combination with taxol
[3] = system: breast cancer cells such as MCF-7 or T-47D; conditions: Mellanen et al., 1996; cited from earlier work
[4] = system: HepG2 cells, a human heptocellular carcinoma cell line; assay: DIC microscopy of cell morphology, HepG2 cells; format: cell-based; conditions: for morphology of HepG2 cells: 24-hour incubation
Description: (§1) For evaluation of the biological activities of abietic acid on mammalian cells, a time-lapsed recording using video-enhanced DIC microscopy on a variety of cultured cells, including cancerous and non-cancerous cell lines, before and after addition of abietic acid, was performed.
(§2) Abietic acid may be extracted by any conventional methods. In one embodiment of the invention, abietic acid was extracted according to the method described in Luong J H et al., 1999, Electrophoresis. 20(7): 1546–54, and an abietic acid stock solution at a concentration of 150 μg/ml was prepared subsequently.
HepG2 cells, a human heptocellular carcinoma cell line, were cultured in a standard medium under standard conditions. The HepG2 cells were trypsinized and a cell suspension at a concentration of 10^5 cells per milliliter of medium was prepared therefrom. The cell suspension was poured into a 22×22 mm coverglass and treated without abietic acid or with 0.3, 0.15 or 0.03 μg/ml abietic acid, respectively, as described above.
(§3) It has been known that the morphology of a cell reflects the healthy condition of the cell. For instance, once a cell, which is normally attached to a substrate with a flat morphology, swells and becomes round in morphology, it means that the condition of the cell turns disadvantageous and the cell may stop the growth and be dead soon.

[5] = system: Detroit 551 normal fibroblast cells; assay: DIC microscopy of cell morphology, Detroit 551 normal fibroblast cells; format: cell-based
Description: as §1, §2
Detroit 551 normal fibroblast cells were treated without abietic acid or with abietic acid, as described above. The morphology of the normal fibroblast cells was affected when treated with 0.15 and 0.3 μg/ml abietic acid.
as §3

[6] = system: plasma membrane of the cell; assay: electrophysiological experiments and dye-permeability assays; format: cell-based
Description: In addition, to further study the mechanisms underlying the swelling phenomenon of a cell, electrophysiological experiments and dye-permeability assays were conducted to measure the permeability of a plasma membrane of the cell.

[7] = system: HeLa cells, a human epithelioid cervical carcinoma cell line; assay: video-enhanced DIC microscopy of cell morphology, HeLa cells; format: cell-based
Description: as §1, §2
HeLa cells, a human epithelioid cervical carcinoma cell line, were cultured in a standard medium under standard conditions. The HeLa cells were trypsinized and a cell suspension at a concentration of 10^5 cells per milliliter of medium was prepared therefrom. The cell suspension was poured into a 22×22 mm coverglass and treated without abietic acid or with the abietic acid stock solution to achieve a final concentration of 0.3 μg/ml (1/500 dilution), 0.15 μg/ml (1/1000 dilution) or 0.03 μg/ml (1/5000 dilution), respectively.
as §3

lipoxygenase pathway = conditions: Ulusu et al., 2002; read-out: IC50 of inhibition of lipoxygenase pathway; cited from earlier work
[8] = system: MCF-7 breast cancer cell line; format: in vivo; conditions: 0.02667 mg per gram body weight by gastric pipe per two days; for Average maximum diameter: 8 mice
Description: Eighty Balb/c-nu/nu female nude mice, supplied by National Laboratory Animal Center in the ROC (Taiwan), four-week old, weight about 18 to 20 g, free of pinworm infection, were housed in the laboratories of the National Yang-Ming University, Taipei, ROC (Taiwan). Clear water and feeds were normally provided. The litters were replaced with new ones per three days. On the other hand, a MCF-7 breast cancer cell line was cultured under standard conditions.
Since the nude mice were five weeks old, the nude mice were intramuscularly injected with 1.7 mg of estradiol valerate at their leg regions. On the other hand, the MCF-7 cells were treated with estradiol for 24 hours, and then trypsinized, centrifuged and recovered in the Minimum Essential Medium (MEM) medium to achieve a concentration of 2×10^7 cell/ml.
After two days following the intramuscular injection of estradiol valerate, the nude mice were subcutaneously injected with 500 μl of the estradiol-treated MCF-7 cells (2×10^7 cell/ml) at their back regions. Once injection, the back regions swelled but became even later.
After three weeks following the injection of the MCF-7 cells, a subcutaneous tumor of 2 mm in a maximum diameter was developed at the backs of the nude mice.
These tumor containing nude mice were divided into two groups, each including 8 mice. One of the two groups were fed normally as a control group. The mice of the other group were fed with abietic acid at a dosage of 0.02667 mg per gram of the body weight of the nude mice by a gastric pipe per two days for a period of more than 12 weeks (experimental group).
The maximum diameter of the tumor on the back of each nude mouse of the control group and the experimental group were recorded, as shown in Table 1 and FIG. 3.

[9] = MTT (mitochondrial activity) assay of cell proliferation; format: cell-based
Text: A MTT (mitochondrial activity) assay was used to determine a cell proliferation.

CC(C)C1=CC2=CC[C@@H]3[C@](C)(CCC[C@@]3(C)C(=O)O)[C@H]2CC1 [abietic acid]
production of prostaglandin E2 (prostaglandin E2): inhibit the production of the inflammatory mediator, prostaglandin E2 | effect on efficacy of mitomycin C on growth [1]: accelerate the efficacy of mitomycin C | effect on inhibitory activity of taxol [2]: enhance the inhibitory activity of taxol | estrogenic effect [3]: estrogenic | morphology of HepG2 cells ([4]; 0.03 μg/ml): different morphology | morphology of HepG2 cells ([4]; 0.15 and 0.3 μg/ml): swelled | concentration effective to induce a swelling phenomenon ([4]; HepG2 cell line): 0.03 µg/mL | growth of cancer cells after swelling ([4]; HepG2 cells, about 24 hours exposure, relatively low concentration): inhibition of the growth and the death of the cancer cells | morphology of normal fibroblast cells ([5]; 0.03 μg/ml): normal and flat morphology | morphology of normal fibroblast cells ([5]; 0.15 and 0.3 μg/ml): affected | concentration that affects the morphology of a normal fibroblast cell ([5]; Detroit 551): higher than 0.15 μg/ml | morphology and growth of normal fibroblast cells ([5]; about 24 hours exposure at the same concentration): remained flat in morphology and grew well | permeability of a plasma membrane [6]: direct effect on influx and efflux of chemicals across the cell membrane | morphology of HeLa cells ([7]; 0.03, 0.15 and 0.3 μg/ml, 24-hour incubation): serious swelling phenomenon | concentration effective to induce a swelling phenomenon ([7]; HeLa cell line): 0.03 µg/mL | growth of cancer cells after swelling ([7]; HeLa cells, about 24 hours exposure, relatively low concentration): inhibition of the growth and the death of the cancer cells | IC50 (lipoxygenase pathway): 29.5 ± 1.29 µM | average maximum diameter of the tumor in comparison with mice without treatment ([8]; 12 weeks): significantly reduced | survival of mice to the end of the period ([8]; more than 12 weeks): all the mice were alive | Average maximum diameter ([8]; week 1): 0.587 cm | Average maximum diameter ([8]; week 3): 0.675 cm | Average maximum diameter ([8]; week 6): 0.700 cm | Average maximum diameter ([8]; week 9): 0.787 cm | Average maximum diameter ([8]; week 12): 0.800 cm | cell proliferation / mitosis ([9]; abietic acid by itself): inhibit cell mitosis in a dose-dependent manner | effect on killing effects of anti-cancer drugs ([9]; in combination with a variety of anti-cancer drugs): significantly enhanced the killing effects of a variety of anti-cancer drugs
